# In US7696218B2, “Substituted 1,3-dialkyl-2,4-dioxo-6-(arylamino)-1,2,3,4-tetrahydropyrimidine-5-hydroxamic acid inhibitors of MAPK/ERK kinase” (Takeda San Diego, Inc., priority 2006, dated 2010):
# Target: T1, MEK2 (Homo sapiens, UniProt P36507, S222E/S226D)
# T1 construct: 6-histidine tag (N); made in house; host or cells: Spodoptera frugiperda Sf9 (baculovirus) for MEK2; E. coli for ERK1
# Assay: MEK2 inhibition assay, fluorescence polarization with IMAP beads (ERK1 / FI-Erktide substrate)
# Type: biochemical
# Conditions: 4 nM MEK2, 25 nM ERK1, 400 μM ATP, 500 nM FI-Erktide, 1% DMSO, 22 min at room temperature; values given as ranges; read-out: IC50 of Exemplified Compounds Against MEK2
# Text: For MEK2, DNA encoding residues 1-400 (S222E/S226D) of the full-length sequence of the human enzyme may be amplified by PCR and cloned into pFastbac (Invitrogen), which incorporates a 6-histidine tag at the N-terminus. The two mutations, S222E and S226D, may be obtained by quick change PCR. SEQ ID NO: 3 corresponds to residues 1-400 with mutations S222E/S226D, and with the N-terminal 6-histidine tag and SEQ ID NO: 4 is the DNA sequence that was used to encode SEQ ID NO: 3.
# Recombinant baculovirus incorporating the MEK1 and MEK2 constructs may be generated by transposition using the Bac-to-Bac system (Invitrogen). High-titer viral stocks may be generated by infection of Spodoptera frugiperda Sf9 cells; the expression of recombinant protein may be carried out by infection of Spodoptera frugiperda Sf9 (Invitrogen) in 5L Wave Bioreactors (Wave Biotech).
# Recombinant protein may be isolated from cellular extracts by passage over ProBond resin (Invitrogen). Partially purified extracts of all MEK1 may then be further purified by high pressure liquid chromatography over a SEC2000 gel filtration resin. The purity of MEK1 and MEK2 proteins may be determined on denaturing SDS-PAGE gel. Purified MEK1 and MEK2 may then be concentrated to a final concentration of 3.4 mg/ml and 5.4 mg/ml, respectively. The proteins may be either stored at −78° C. in a buffer containing 50 mM TRIS-HCl pH 7.6, 250 mM NaCl, 0.1 mM EDTA and 0.125 mM TCEP or at −20° C. in the presence of glycerol (final concentration of glycerol at 50%).
# The inhibitory properties of compounds relative to MEK1 or MEK2 may be determined using a black 384-well-plate format under the following reaction conditions: 50 mM HEPES pH 7.3, 10 mM NaCl, 10 mM MgCl2, 0.01% Brij35, 1 nM MEK1 or 4 nM MEK2, 25 nM ERK1, 400 μM ATP, 500 nM IPTTPITTYFFFK-5FAM-COOH (FI-Erktide), and 1% DMSO. Reaction product is determined quantitatively by fluorescent polarization using progressive IMAP beads from Molecular Devices.
# The assay reaction may be initiated as follows: 2 μl of the mixture of 1.5 μM FI-Erktide and 75 nM ERK with 2 μl of inhibitor (2 fold serial dilutions for 11 data points for each inhibitor) containing 3% DMSO were added to each well of the plate, followed by the addition of 2 μl of the mixture of 3 nM MEK1 or 12 nM MEK2 and 1200 μM ATP to initiate the reaction (final enzyme concentration was 1 nM for MEK1 or 4 nM for MEK2). The reaction mixture may then be incubated at room temperature for 22 min, and quenched and developed by addition of 20 μl of 1:200 dilution of progressive IMAP beads (Molecular Devices) in 80% buffer A, 20% bufferB and 0.003% Tween 20. Fluorescence polarization of the resulting reaction mixtures may be measured after a 1 hour incubation at room temperature.
# IC50 values may be calculated by non-linear curve fitting of the compound concentrations and fluorescence polarization signal to the standard IC50 equation.
# T1 sequence (P36507 with tags, fused parts or gaps S222E/S226D): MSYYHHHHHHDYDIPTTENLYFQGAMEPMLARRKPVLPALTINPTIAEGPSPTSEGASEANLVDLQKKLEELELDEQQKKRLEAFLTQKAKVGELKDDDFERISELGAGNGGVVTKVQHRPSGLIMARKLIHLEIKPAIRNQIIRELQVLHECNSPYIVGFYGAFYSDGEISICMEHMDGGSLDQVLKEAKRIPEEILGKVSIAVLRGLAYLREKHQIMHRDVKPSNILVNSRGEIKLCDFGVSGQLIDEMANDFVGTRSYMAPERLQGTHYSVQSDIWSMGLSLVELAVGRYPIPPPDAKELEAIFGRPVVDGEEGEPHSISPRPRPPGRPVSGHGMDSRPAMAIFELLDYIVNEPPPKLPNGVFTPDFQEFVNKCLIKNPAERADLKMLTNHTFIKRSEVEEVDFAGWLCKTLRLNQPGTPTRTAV
row,Structure (SMILES),IC50 [nM]
1,"Cn1c(Nc2ccc(I)cc2F)c(C(=O)NOCC[C@H](O)CO)c(=O)n(C)c1=O [Example 34, (S)-N-(3,4-Dihydroxybutoxy)-6-(2-fluoro-4-iodophenylamino)-1,3-dimethyl-2,4-dioxo-1,2,3,4-tetrahydropyrimidine-5-carboxamide]",2500 to 25000
2,"Cn1c(Nc2ccc(I)cc2F)c(C(=O)NOC[C@@H](O)CO)c(=O)n(C)c1=O [Example 37, (S)-N-(2,3-Dihydroxypropoxy)-6-(2-fluoro-4-iodophenylamino)-1,3-dimethyl-2,4-dioxo-1,2,3,4-tetrahydropyrimidine-5-carboxamide]",≤ 500
3,"Cn1c(Nc2cc(F)c(I)cc2F)c(C(=O)NOC[C@H](O)CO)c(=O)n(C)c1=O [Example 40, (R)-6-(2,5-Difluoro-4-iodophenylamino)-N-(2,3-dihydroxypropoxy)-1,3-dimethyl-2,4-dioxo-1,2,3,4-tetrahydropyrimidine-5-carboxamide]",> 25000
4,"CCc1cc(Nc2c(C(=O)NOCCO)c(=O)n(C)c(=O)n2C)ccc1I [Example 41, 6-(3-Ethyl-4-iodophenylamino)-N-(2-hydroxyethoxy)-1,3-dimethyl-2,4-dioxo-1,2,3,4-tetrahydropyrimidine-5-carboxamide]",> 25000
5,"Cn1c(Nc2ccc(I)cc2F)c(C(=O)N2CCNCC2)c(=O)n(C)c1=O [Example 43, 6-(2-Fluoro-4-iodophenylamino)-1,3-dimethyl-5-(piperazine-1-carbonyl)pyrimidine-2,4(1H,3H)-dione]",> 25000
6,"Cn1c(Nc2ccc(I)cc2F)c(C(=O)N2CCN(CCO)CC2)c(=O)n(C)c1=O [Example 44, 6-(2-Fluoro-4-iodophenylamino)-5-(4-(2-hydroxyethyl)piperazine-1-carbonyl)-1,3-dimethylpyrimidine-2,4(1H,3H)-dione]",> 25000
7,"CCn1c(=O)c(C(=O)NOCCO)c(Nc2ccc(I)cc2F)n(C)c1=O [Example 48, 3-Ethyl-6-(2-fluoro-4-iodophenylamino)-N-(2-hydroxyethoxy)-1-methyl-2,4-dioxo-1,2,3,4-tetrahydropyrimidine-5-carboxamide]",> 25000
8,"CCn1c(Nc2ccc(I)cc2F)c(C(=O)NOCCO)c(=O)n(C)c1=O [Example 51, 1-Ethyl-6-(2-fluoro-4-iodophenylamino)-N-(2-hydroxyethoxy)-3-methyl-2,4-dioxo-1,2,3,4-tetrahydropyrimidine-5-carboxamide]",> 25000
9,"Cn1c(Nc2ccc(I)cc2F)c(C(=O)NOC[C@H](O)CCO)c(=O)n(C)c1=O [Example 56, 6-(2-Fluoro-4-iodo-phenylamino)-1,3-dimethyl-2,4-dioxo-1,2,3,4-tetrahydropyrimidine-5-carboxylic acid ((R)-2,4-dihydroxy-butoxy)-amide]",501 to 2500
10,"Cn1c(Nc2ccc(I)cc2F)c(C(=O)NOC[C@@H](O)CCO)c(=O)n(C)c1=O [Example 57, 6-(2-Fluoro-4-iodo-phenylamino)-1,3-dimethyl-2,4-dioxo-1,2,3,4-tetrahydropyrimidine-5-carboxylic acid ((S)-2,4-dihydroxy-butoxy)-amide]",≤ 500

# Now from value to compound:
row,IC50 [nM],Structure (SMILES)
1,≤ 500,"Cc1cc(I)ccc1Nc1c(C(=O)NOCCO)c(=O)n(C)c(=O)n1C [Example 35, N-(2-Hydroxyethoxy)-6-(4-iodo-2-methylphenylamino)-1,3-dimethyl-2,4-dioxo-1,2,3,4-tetrahydropyrimidine-5-carboxamide]"
2,501 to 2500,"Cn1c(Nc2ccc(I)c(F)c2F)c(C(=O)NOC[C@H](O)CO)c(=O)n(C)c1=O [Example 36, (R)-6-(2,3-Difluoro-4-iodophenylamino)-N-(2,3-dihydroxypropoxy)-1,3-dimethyl-2,4-dioxo-1,2,3,4-tetrahydropyrimidine-5-carboxamide]"
3,≤ 500,"Cc1cc(I)ccc1Nc1c(C(=O)NOC[C@H](O)CO)c(=O)n(C)c(=O)n1C [Example 38, (R)-N-(2,3-Dihydroxypropoxy)-6-(4-iodo-2-methylphenylamino)-1,3-dimethyl-2,4-dioxo-1,2,3,4-tetrahydropyrimidine-5-carboxamide]"
4,≤ 500,"Cn1c(Nc2ccc(I)cc2Cl)c(C(=O)NOC[C@@H](O)CO)c(=O)n(C)c1=O [Example 39, (S)-6-(2-chloro-4-iodophenylamino)-N-(2,3-dihydroxypropoxy)-1,3-dimethyl-2,4-dioxo-1,2,3,4-tetrahydropyrimidine-5-carboxamide]"
5,501 to 2500,"Cn1c(Nc2ccc(I)cc2F)c(C(=O)NCCN)c(=O)n(C)c1=O [Example 42, N-(2-Aminoethyl)-6-(2-fluoro-4-iodophenylamino)-1,3-dimethyl-2,4-dioxo-1,2,3,4-tetrahydropyrimidine-5-carboxamide]"
6,501 to 2500,"CN(C)NC(=O)c1c(Nc2ccc(I)cc2F)n(C)c(=O)n(C)c1=O [Example 45, 6-(2-Fluoro-4-iodophenylamino)-N′,N′,1,3-tetramethyl-2,4-dioxo-1,2,3,4-tetrahydropyrimidine-5-carbohydrazide]"
7,501 to 2500,"Cn1c(=O)c(C(=O)NOC[C@H](O)CO)c(Nc2ccc(I)cc2F)n(CF)c1=O [Example 54, (R)-N-(2,3-Dihydroxypropoxy)-6-(2-fluoro-4-iodophenylamino)-1-(fluoromethyl)-3-methyl-2,4-dioxo-1,2,3,4-tetrahydropyrimidine-5-carboxamide]"
8,501 to 2500,"Cn1c(Nc2ccc(I)cc2F)c(C(=O)NCCO)c(=O)n(C)c1=O [Example 55, 6-(2-Fluoro-4-iodophenylamino)-N-(2-hydroxyethyl)-1,3-dimethyl-2,4-dioxo-1,2,3,4-tetrahydropyrimidine-5-carboxamide]"
9,2500 to 25000,"Cn1c(Nc2ccc(I)cc2F)c(C(=O)N2CC(O)C2)c(=O)n(C)c1=O [Example 58, 6-(2-Fluoro-4-iodo-phenylamino)-5-(3-hydroxy-azetidine-1-carbonyl)-1,3-dimethyl-1H-pyrimidine-2,4-dione]"
